Patent publication US20240101540A1, “TARGETED PROTEIN DEGRADATION OF PARP14 FOR USE IN THERAPY” (Ribon Therapeutics, Inc., priority 2022, published 2024)
Counter-ions that a name gives are not always drawn. Like-named read-outs stand apart in the source and are kept apart here.

Biological target: T1, catalytic domain of human PARP14 (residues 1611 to 1801) with NanoLuc tag (Homo sapiens, UniProt Q460N5)
T1 construct: expressed in transfected cells; host or cells: HEK-293T cells (ATCC), pcDNA3.1(-) vector
T1 sequence (Q460N5 1611-1801): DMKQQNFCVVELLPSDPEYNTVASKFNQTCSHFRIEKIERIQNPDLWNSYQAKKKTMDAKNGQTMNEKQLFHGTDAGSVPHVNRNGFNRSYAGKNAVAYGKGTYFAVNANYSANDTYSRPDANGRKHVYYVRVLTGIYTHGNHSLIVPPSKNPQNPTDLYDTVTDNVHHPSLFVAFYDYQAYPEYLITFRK
Test: NanoLuc assay for the degradation of PARP14 (NanoLuc-tagged PARP14 overexpressed in HEK-293T cells, 2 hours)
Format: cell-based
Conditions: Assay A (Example A): NanoLuc-tagged PARP14 degradation in HEK-293T cells

DC50 (read-out: DC50) | SMILES | DC50
< 100 nM | O=C1CCC(Nc2ccc(N3CCN(CCN4CCC(COc5cc(F)c6c(=O)[nH]c(CS[C@H]7CC[C@H](O)CC7)nc6c5)CC4)CC3)cc2)C(=O)N1 (stereo partly drawn) [Example 83, 3-((4-(4-(2-(4-(((5-fluoro-2-((((1r,4r)-4-hydroxycyclohexyl)thio)methyl)-4-oxo-3,4-dihydroquinazolin-7-yl)oxy)methyl)piperidin-1-yl)ethyl)piperazin-1-yl)phenyl)amino)piperidine-2,6-dione] | –
< 100 nM | O=C1CCC(Nc2ccc(CN3CCC(N4CCC(COc5cc(F)c6c(=O)[nH]c(CSC7CCOCC7)nc6c5)CC4)CC3)cc2)C(=O)N1 (stereo not drawn) [Example 84, 3-((4-((4-(((5-fluoro-4-oxo-2-(((tetrahydro-2H-pyran-4-yl)thio)methyl)-3,4-dihydroquinazolin-7-yl)oxy)methyl)-[1,4′-bipiperidin]-1′-yl)methyl)phenyl)amino)piperidine-2,6-dione] | –
< 100 nM | O=C1CCC(N2C(=O)c3ccc(N4CCC(N5CCN(Cc6cc(F)c7c(=O)[nH]c(CSC8CCOCC8)nc7c6)CC5)CC4)cc3C2=O)C(=O)N1 (stereo not drawn) [Example 85, 2-(2,6-dioxopiperidin-3-yl)-5-(4-(4-((5-fluoro-4-oxo-2-(((tetrahydro-2H-pyran-4-yl)thio)methyl)-3,4-dihydroquinazolin-7-yl)methyl)piperazin-1-yl)piperidin-1-yl)isoindoline-1,3-dione] | –
< 100 nM | O=C1CCC(Nc2ccc(N3CCC(N4CCN(CCc5cc(F)c6c(=O)[nH]c(CSC7CCOCC7)nc6c5)CC4)CC3)cc2)C(=O)N1 (stereo not drawn) [Example 86, 3-((4-(4-(4-(2-(5-fluoro-4-oxo-2-(((tetrahydro-2H-pyran-4-yl)thio)methyl)-3,4-dihydroquinazolin-7-yl)ethyl)piperazin-1-yl)piperidin-1-yl)phenyl)amino)piperidine-2,6-dione] | –
< 100 nM | O=C1CCC(Nc2ccc(OC3CCN(C4CCC(COc5cc(F)c6c(=O)[nH]c(CSC7CCOCC7)nc6c5)CC4)CC3)cc2)C(=O)N1 (stereo not drawn) [Example 87, 3-((4-((1-(4-(((5-fluoro-4-oxo-2-(((tetrahydro-2H-pyran-4-yl)thio)methyl)-3,4-dihydroquinazolin-7-yl)oxy)methyl)cyclohexyl)piperidin-4-yl)oxy)phenyl)amino)piperidine-2,6-dione] | –
< 100 nM | O=C1CCC(Nc2ccc(N3CCC(N4CC(N5CCC(COc6cc(F)c7c(=O)[nH]c(CSC8CCOCC8)nc7c6)CC5)C4)CC3)cc2)C(=O)N1 (stereo not drawn) [Example 88, 3-((4-(4-(3-(4-(((5-fluoro-4-oxo-2-(((tetrahydro-2H-pyran-4-yl)thio)methyl)-3,4-dihydroquinazolin-7-yl)oxy)methyl)piperidin-1I-yl)azetidin-1-yl)piperidin-1-yl)phenyl)amino)piperidine-2,6-dione] | –
< 100 nM | O=C1CCC(Nc2ccc(N3CCC(N4CCC(COc5cc(F)c6c(=O)[nH]c(CSC7CCN(CC(F)(F)F)CC7)nc6c5)CC4)CC3)cc2)C(=O)N1 (stereo not drawn) [Example 89, 3-((4-(4-(((5-fluoro-4-oxo-2-(((1-(2,2,2-trifluoroethyl)piperidin-4-yl)thio)methyl)-3,4-dihydroquinazolin-7-yl)oxy)methyl)-[1,4′-bipiperidin]-1′-yl)phenyl)amino)piperidine-2,6-dione] | –

The next lines start with the compound.

SMILES | DC50 (read-out: DC50) | DC50
Cn1nc(N2CCC(=O)NC2=O)c2ccc(N3CCN(CCN4CCC(COc5cc(F)c6c(=O)[nH]c(CSC7CCOCC7)nc6c5)CC4)CC3)cc21 [Example 75, 1-(6-(4-(2-(4-(((5-fluoro-4-oxo-2-(((tetrahydro-2H-pyran-4-yl)thio)methyl)-3,4-dihydroquinazolin-7-yl)oxy)methyl)piperidin-1-yl)ethyl)piperazin-1-yl)-1-methyl-1H-indazol-3-yl)dihydropyrimidine-2,4(1H,3H)-dione] | < 100 nM | –
O=C1CCC(Nc2ccc(O[C@@H]3C[C@@H]4CN(CCN5CCC(COc6cc(F)c7c(=O)[nH]c(CSC8CCOCC8)nc7c6)CC5)C[C@@H]4C3)cc2)C(=O)N1 (stereo partly drawn) [Example 76, 3-((4-(((3aR,51,6aS)-2-(2-(4-(((5-fluoro-4-oxo-2-(((tetrahydro-2H-pyran-4-yl)thio)methyl)-3,4-dihydroquinazolin-7-yl)oxy)methyl)piperidin-1-yl)ethyl)octahydrocyclopenta[c]pyrrol-5-yl)oxy)phenyl)amino)piperidine-2,6-dione] | < 100 nM | –
O=C1CCN(c2ccc(C3CCN(CCN4CCC(COc5cc(F)c6c(=O)[nH]c(CSC7CCOCC7)nc6c5)CC4)CC3)cc2)C(=O)N1 [Example 77, 1-(4-(1-(2-(4-(((5-fluoro-4-oxo-2-(((tetrahydro-2H-pyran-4-yl)thio)methyl)-3,4-dihydroquinazolin-7-yl)oxy)methyl)piperidin-1-yl)ethyl)piperidin-4-yl)phenyl)dihydropyrimidine-2,4(1H,3H)-dione] | < 100 nM | –
Cn1c(=O)n(C2CCC(=O)NC2=O)c2ccc(C3CCN(CCN4CCC(COc5cc(F)c6c(=O)[nH]c(CSC7CCOCC7)nc6c5)CC4)CC3)cc21 (stereo not drawn) [Example 78, 3-(5-(1-(2-(4-(((5-fluoro-4-oxo-2-(((tetrahydro-2H-pyran-4-yl)thio)methyl)-3,4-dihydroquinazolin-7-yl)oxy)methyl)piperidin-1-yl)ethyl)piperidin-4-yl)-3-methyl-2-oxo-2,3-dihydro-1H-benzo[d]imidazol-1-yl)piperidine-2,6-dione] | < 100 nM | –
O=C1CCC(N2C(=O)c3ccc(OC4CC(CN5CCC(COc6cc(F)c7c(=O)[nH]c(CSC8CCOCC8)nc7c6)CC5)C4)cc3C2=O)C(=O)N1 (stereo not drawn) [Example 79a, 2-(2,6-dioxopiperidin-3-yl)-5-((1r,3r)-3-((4-(((5-fluoro-4-oxo-2-(((tetrahydro-2H-pyran-4-yl)thio)methyl)-3,4-dihydroquinazolin-7-yl)oxy)methyl)piperidin-1-yl)methyl)cyclobutoxy)isoindoline-1,3-dione] | < 100 nM | –
O=C1CCC(Nc2ccc(OC3CC(N4CCC(COc5cc(F)c6c(=O)[nH]c(CSC7CCOCC7)nc6c5)CC4)C3)cc2)C(=O)N1 (stereo not drawn) [Example 81, 3-((4-(3-(4-(((5-fluoro-4-oxo-2-(((tetrahydro-2H-pyran-4-yl)thio)methyl)-3,4-dihydroquinazolin-7-yl)oxy)methyl)piperidin-1-yl)cyclobutoxy)phenyl)amino)piperidine-2,6-dione] | < 100 nM | –
O=C1CCC(Nc2ccc(N3CCN(CCN4CCC(COc5cc(F)c6c(=O)[nH]c(CCC7CCOCC7)nc6c5)CC4)CC3)cc2)C(=O)N1 (stereo not drawn) [Example 82, 3-((4-(4-(2-(4-(((5-fluoro-4-oxo-2-(2-(tetrahydro-2H-pyran-4-yl)ethyl)-3,4-dihydroquinazolin-7-yl)oxy)methyl)piperidin-1-yl)ethyl)piperazin-1-yl)phenyl)amino)piperidine-2,6-dione] | – | < 100 nM
O=C1CCC(Nc2ccc(OC3CC(CN4CCC(COc5cc(F)c6c(=O)[nH]c(CS[C@H]7CC[C@H](O)CC7)nc6c5)CC4)C3)cc2)C(=O)N1 (stereo partly drawn) [Example 90, 3-((4-(3-((4-(((5-fluoro-2-((((1r,4r)-4-hydroxycyclohexyl)thio)methyl)-4-oxo-3,4-dihydroquinazolin-7-yl)oxy)methyl)piperidin-1-yl)methyl)cyclobutoxy)phenyl)amino)piperidine-2,6-dione formate] | < 100 nM | –
